The record followed here is a melting point compilation (Tetko et al.).

Molecules are shown by their SMILES.

The compound `O=C(Nc1ccc2c(c1)OCO2)C(Cl)(Cl)Cl` registered a melting point of 99 to 101 °C.
Next, `Cc1ccc(C#N)c(OC2CCCC2)c1`: 66 to 68 °C.
Under `NCc1cnn(-c2cccc(Cl)c2)c1` stands 88 to 90 °C; under `CCOc1cccc(C=CC(=O)O)c1OC1CCCCC1`, 137 to 139 °C.
Under `Cc1cc(N2CCSCC2)ccc1N` stands 79 to 81 °C; under `CNS(=O)(=O)c1ccc(Cl)c(C(=O)O)c1Cl`, 136 to 138 °C; under `NC(=O)C1CCC1`, 151 to 153 °C.
As to `COC(=O)c1ccc(Oc2ccc([N+](=O)[O-])cc2)nn1`, the melting point is 194 to 196 °C.
Next, `CCOc1ccc(C=C(C#N)C(=O)O)cc1`: 228 to 230 °C; `CC(C)(C)c1ccc(C(=O)Nc2ccccc2N)cc1`: 175 to 177 °C.
As for `Brc1cnc2c(c1)NCCO2`, the melting point lay in the range of 149 to 151 °C.
Next, `Nc1cc(-c2cccc(Br)c2)ncn1`: 229 to 231 °C; `O=C(O)CCSc1nc2ccccc2s1`: 149 to 151 °C.
Compound `CCOc1ccc(N)c(C(F)(F)F)c1` registered a melting point of 69 to 71 °C.
Turning to `Cc1cc(=O)n2nc(CCl)sc2n1`, the melting point lay within 183 to 185 °C.
Next, `CCOC(=O)c1c(NC(=O)CCl)sc(C)c1CC`: 97 to 99 °C; `CC(=O)c1ccc(SCC(=O)O)cc1F`: 138 to 140 °C; `COc1cc(-c2nc(CCl)cs2)ccc1O`: 86 to 88 °C.
`O=C(O)c1cccnc1Oc1ccccc1Br` came in with a melting point of 166 to 168 °C.
Compound `Nc1cncnc1N1CCCC1` came in with a melting point of 156 to 158 °C.
Under `Cc1ccc(S(=O)(=O)Nc2ccccc2Br)cc1` stands 88 to 90 °C; under `CC(Cl)C(=O)NC(N)=O` (stereo not drawn), 159 to 161 °C; under `CCCOc1ccc(OCC(=O)O)cc1`, 106 to 108 °C.
Next, `O=C(O)c1nccnc1C(=O)Nc1ccc(Cl)cc1`: 178 to 180 °C; `O=C(O)C1CCN(S(=O)(=O)c2ccc3c(c2)OCCCO3)CC1`: 173 to 178 °C; `Cn1c(S)nnc1-c1ccccc1Cl`: 144 to 146 °C.
`Nc1nnc(CCc2ccccc2)c(=O)n1N` came in with a melting point of 243 to 245 °C.
The compound `OCCn1nc(-c2ccccc2)cc1-c1ccccc1` showed a melting point of 96 to 98 °C.
In the case of `CC(C)(C)OC(=O)NCCCCCCC(=O)O`, the melting point lay within 44 to 46 °C.
Under `Cc1ccc2[nH]nc(C(=O)O)c2c1` stands 273 to 275 °C.
Under `O=C(O)C1CC1c1c(Cl)cccc1Cl` (stereo not drawn) stands 144 to 146 °C; under `c1ccc(-c2nc[nH]n2)nc1`, 159 to 161 °C; under `CC(C)C(=O)Nc1ccc(N)cc1`, 74 to 76 °C.
Under `CC(C)S(=O)(=O)Nc1cccc(O)c1` stands 123 to 125 °C.
`Cc1cccc(NC2=NC(=O)CS2)c1` yielded a melting point of 160 to 162 °C.
Next, `O=C(CCl)N(Cc1cccs1)C1CCS(=O)(=O)C1` (stereo not drawn): < 17 °C; `NCCNC(=O)c1ccccc1O`: 38 to 40 °C.
Next, `CC(=O)c1cccc(NC(=O)CCl)c1`: 112 to 114 °C.
Under `Nc1nc(-c2ccsc2)ns1` stands 172 to 174 °C; under `Nc1nnc(-c2ccc(Cl)cc2)o1`, 260 to 262 °C.
Take `Cn1ccc(S(=O)(=O)NCC2(N)CCCCC2)c1`: the melting point fell in the range of 94 to 96 °C.
`Oc1ccc2cccc(O)c2n1` registered a melting point of 293 to 295 °C.
The compound `CCOc1ccc(S(=O)(=O)Cl)c2ccccc12` showed a melting point of 98 to 100 °C.
`N#Cc1ccc(NCCO)cc1` had a melting point of 84 to 86 °C.
Under `Nn1cncn1` stands 64 to 66 °C.
The compound `COc1ccc(C)cc1NC(=O)c1cc2ccccc2cc1O` yielded a melting point of 178 to 180 °C.
The compound `CC(C)(C)OC(=O)N1CCN(c2ccc(Cl)nn2)CC1` displayed a melting point of 162 to 164 °C.
`CN(C)C(=O)c1cc(N)ccc1F`: the melting point was in the range of 104 to 106 °C.
